What all share (assay type): cell-based
Assay [1] has as its system Trypanosoma brucei Lister 427 VSG221 with APOL1 G0 recombinant protein. Nature of the assay: APOL1 G0 trypanosome cell rescue assay (Example B5). The conditions noted are these: Trypanosoma brucei, 20 h, read-out: APOL1 G0 Trypanosome Rescue EC50, Trypanosoma brucei Lister 427 VSG221 with APOL1 G0 recombinant protein, 20 hours, CellTiter-Glo; geometric mean of at least 2 assay runs; † = single assay run. The procedure, abridged:
(§1)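 Compounds in duplicate 2-fold, 11-point series with 0.4% DMSO final. Next, tag-free mature APOL1 variant protein went in from a 2 μg/mL solution, then trypanosomes to 250 per well. Plates incubated 20 h humidified at 37° C, equilibrated to room temperature, and CellTiter-Glo added for luminescence.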
In general terms: In ATP-based viability assays light output follows the ATP content of the culture.

Assay [2] has as its system Trypanosoma brucei Lister 427 VSG221 with APOL1 G2 recombinant protein. Nature of the assay: APOL1 G2 trypanosome cell rescue assay (Example B5). The conditions noted are these: Trypanosoma brucei, 20 h, read-out: APOL1 G2 Trypanosome Rescue EC50, Trypanosoma brucei Lister 427 VSG221 with APOL1 G2 recombinant protein, 20 hours, CellTiter-Glo; geometric mean of at least 2 assay runs; † = single assay run. In outline: as §1

The subject of assay [3] is HEK293 clonal cell line overexpressing APOL1 G1. Nature of the assay: APOL1 G1 HEK293 cell rescue assay (Example B3). The conditions noted are these: Homo sapiens, HEK293, HEK293 clonal line overexpressing APOL1 G1; geometric mean of at least 2 runs; † = single run; ¥ = concentration at 50% rescue estimated (no sigmoidal curve). In outline:
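HEK293 clonal line overexpressing APOL1 G1; EC50 is half-maximal reversal of APOL1-induced cell death. Values are the geometric mean of ≥2 runs on separate days, each run the average of duplicate wells. Where no sigmoidal curve could be fitted, the concentration giving 50% rescue was estimated.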

Assay [4] relates to Trypanosoma brucei Lister 427 VSG221 with APOL1 G1 recombinant protein. Nature of the assay: APOL1 G1 trypanosome cell rescue assay (Example B5). As to conditions: Trypanosoma brucei, 20 h, read-out: APOL1 G1 Trypanosome Rescue EC50, Trypanosoma brucei Lister 427 VSG221 with APOL1 G1 recombinant protein, 20 hours, CellTiter-Glo; geometric mean of at least 2 assay runs; † = single assay run. The procedure, abridged:
as §1

In the case of `O=C1Nc2ccc(Cl)cc2C12CCN(CCOc1ccc(S(=O)(=O)[C@H]3C[C@@H](O)C3)cc1)CC2` [Compound 17, 5-chloro-1′-[2-(4-{[(cis)-3-hydroxycyclobutyl]sulfonyl}phenoxy)ethyl]-1,2-dihydrospiro[indole-3,4′-piperidin]-2-one], the EC50 (commonly the concentration needed to bring the measured effect to its halfway point) is 108 nM in assay [1], 36.7 nM in assay [2], 160 nM in assay [3] and 148 nM in assay [4].

As to `O=C1CCc2cc(OCCN3CCC4(CC3)C(=O)Nc3ccc(Cl)cc34)ccc2N1C1COC1` [Compound 99, 5-chloro-1′-(2-{[1-(oxetan-3-yl)-2-oxo-1,2,3,4-tetrahydroquinolin-6-yl]oxy}ethyl)-1,2-dihydrospiro[indole-3,4′-piperidin]-2-one], the concentration giving a half-maximal response (EC50) in assay [1] is 216 nM; in assay [2] it was 90.1 nM; in assay [3] it was 205 nM; in assay [4], 346 nM.

For `CS(=O)(=O)c1ccc(OCCN2CCC3(CC2)C(=O)Nc2ccc(C#N)cc23)cc1C(F)F` [Compound 100, 1′-{2-[3-(difluoromethyl)-4-methanesulfonylphenoxy]ethyl}-2-oxo-1,2-dihydrospiro[indole-3,4′-piperidine]-5-carbonitrile], the EC50 in assay [1] is 63.5 nM; in assay [2], 25.9 nM; in assay [3], 134 nM; in assay [4], 113 nM.

With `CS(=O)(=O)C1(c2ccc(OCCN3CCC4(CC3)C(=O)Nc3ccc(C#N)cc34)cc2)CC1` [Compound 101, 1′-{2-[4-(1-methanesulfonylcyclopropyl)phenoxy]ethyl}-2-oxo-1,2-dihydrospiro[indole-3,4′-piperidine]-5-carbonitrile], the EC50 is 195 nM in assay [1], 69.4 nM in assay [2], 248 nM in assay [3] and 200 nM in assay [4].

On to `CS(=O)(=O)C1(c2ccc(OCCN3CCC4(CC3)C(=O)Nc3ccc(Cl)cc34)cc2)CC1` [Compound 102, 5-chloro-1′-{2-[4-(1-methanesulfonylcyclopropyl)phenoxy]ethyl}-1,2-dihydrospiro[indole-3,4′-piperidin]-2-one], for which the EC50 was 47.3 nM in assay [1], 18 nM in assay [2], 111 nM in assay [3] and 50.5 nM in assay [4].

Regarding `CN1c2ccc(OCCN3CCC4(CC3)C(=O)Nc3ccc(Cl)cc34)cc2CCS1(=O)=O` [Compound 103, 6-(2-{5-chloro-2-oxo-1,2-dihydrospiro[indole-3,4′-piperidin]-1′-yl}ethoxy)-1-methyl-3,4-dihydro-1H-2λ^6,1-benzothiazine-2,2-dione], the concentration giving a half-maximal response (EC50) is 113 nM in assay [1], 43.7 nM in assay [2], 124 nM in assay [3] and 170 nM in assay [4].

Take `CN1c2ccc(OCCN3CCC4(CC3)C(=O)Nc3ccc(C#N)cc34)cc2CCS1(=O)=O` [Compound 104, 1′-{2-[(1-methyl-2,2-dioxo-3,4-dihydro-1H-2λ^6,1-benzothiazin-6-yl)oxy]ethyl}-2-oxo-1,2-dihydrospiro[indole-3,4′-piperidine]-5-carbonitrile]: the EC50 in assay [1] is 583 nM; in assay [2], 184 nM; in assay [3], 356 nM; in assay [4], 726 nM.

On to `N#Cc1ccc2c(c1)C1(CCN(CCOc3ccc4c(c3)CCC(=O)N4CC(F)F)CC1)C(=O)N2` [Compound 105, 1′-(2-{[1-(2,2-difluoroethyl)-2-oxo-1,2,3,4-tetrahydroquinolin-6-yl]oxy}ethyl)-2-oxo-1,2-dihydrospiro[indole-3,4′-piperidine]-5-carbonitrile], for which the 50% effective concentration (EC50) in assay [1] was 217 nM; in assay [2], 75.2 nM; in assay [3], 175 nM; in assay [4], 274 nM.

`O=C1CCc2cc(OCCN3CCC4(CC3)C(=O)Nc3ccc(Cl)cc34)ccc2N1CC(F)F` [Compound 106, 5-chloro-1′-(2-{[1-(2,2-difluoroethyl)-2-oxo-1,2,3,4-tetrahydroquinolin-6-yl]oxy}ethyl)-1,2-dihydrospiro[indole-3,4′-piperidin]-2-one]: the 50% effective concentration (EC50) in assay [1] is 69 nM; in assay [2], 23.4 nM; in assay [3], 122 nM; in assay [4] it was 91.8 nM.

The values above are taken from patent US12344610B2, “APOL1 inhibitors and methods of use” (Maze Therapeutics, Inc., priority 2022, dated 2025).
